# How the values were obtained:
# [1] = test system: smallflower umbrella sedge; assay: Test C flooded paddy test; format: in vivo, Cyperus difformis
# [2] = test system: yellow nutsedge; assay: Test C pre-/postemergence herbicide test; format: in vivo, Cyperus esculentus
# In short: (§1)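 Preemergence: seeds planted and treated with compound in non-phytotoxic solvent with surfactant; postemergence: plants at 2 to 18 cm (1- to 4-leaf stage) sprayed likewise. Kept in greenhouse 12 to 14 days, then visually rated against controls, 0 (no effect) to 100 (complete control).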
# [3] = test system: barnyardgrass; assay: Test C flooded paddy test; format: in vivo, Echinochloa crus-galli
# In short: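 Scoring by eye, 12–14 days post-treatment, greenhouse-held plants vs. controls; 0 no effect, 100 complete control. Sprayed at 1–4 leaves (2–18 cm); paddy barnyardgrass at 2 leaves, flooded.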
# [4] = test system: lambsquarters; assay: Test C pre-/postemergence herbicide test; format: in vivo, Chenopodium album
# In short: as §1
# [5] = test system: giant foxtail; assay: Test A pre-/postemergence herbicide test; format: in vivo, Setaria faberi; settings: for Plant response rating, Foxtail, Giant: Postemergence; for Foxtail, Giant plant response rating: Preemergence
# In short: (§2)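 Sandy loam soil given preemergence directed spray; plants at 2 to 10 cm, one- to two-leaf stage, sprayed to runoff postemergence, compounds in non-phytotoxic solvent with surfactant. Injury rated visually versus untreated controls after about ten greenhouse days, 0 (no effect) to 100 (complete control); dash means not tested.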
# [6] = test system: corn; assay: Test C pre-/postemergence herbicide test; format: in vivo, Zea mays; settings: for Plant response rating, Corn: visual, 12 to 14 days
# In short: as §1
# [7] = test system: soybean; assay: Test C pre-/postemergence herbicide test; format: in vivo, Glycine max
# In short: as §1
# [8] = test system: pigweed; assay: Test C pre-/postemergence herbicide test; format: in vivo, Amaranthus retroflexus
# In short: as §1
# [9] = test system: morningglory; assay: Test C pre-/postemergence herbicide test; format: in vivo, Ipomoea coccinea; parameters: key to Plant response rating, Morningglory: 0 = no effect, 100 = complete control
# In short: as §1
# [10] = test system: kochia; assay: Test C pre-/postemergence herbicide test; format: in vivo, Kochia scoparia
# In short: as §1
# [11] = test system: woolly cupgrass; assay: Test C pre-/postemergence herbicide test; format: in vivo, Eriochloa villosa; settings: for Plant response rating, Cupgrass, Woolly: visual, 12 to 14 days
# In short: as §1
# [12] = test system: velvetleaf; assay: Test A pre-/postemergence herbicide test; format: in vivo, Abutilon theophrasti; settings: for Velvetleaf plant response rating: Preemergence, visual rating, 0 to 100 scale (0 no effect, 100 complete control)
# In short: as §2
# [13] = test system: Surinam grass; assay: Test C pre-/postemergence herbicide test; format: in vivo, Urochloa decumbens
# In short: as §1
# [14] = test system: goosegrass; assay: Test C pre-/postemergence herbicide test; format: in vivo, Eleusine indica
# In short: as §1
# [15] = 62 g ai/ha, scale 0 to 100 (0 no effect, 100 complete control)
# [16] = 125 g ai/ha, scale of 0 to 100, 0 is no effect, 100 is complete control
# [17] = 250 g ai/ha, scale of 0 to 100, 0 is no effect, 100 is complete control
# [18] = 500 g ai/ha, visual rating after 12 to 14 days, scale 0 to 100 (0 no effect, 100 complete control)
# [19] = 125 g ai/ha, scale 0 (no effect) to 100 (complete control), visual, 12 to 14 days, preemergence
# [20] = Preemergence, 500 g ai/ha, scale 0 to 100, 0 no effect, 100 complete control
# [21] = 2000 g ai/ha, 0 to 100 scale, 0 no effect, 100 complete control
# [22] = 125 g ai/ha, scale 0 (no effect) to 100 (complete control), preemergence
# [23] = 250 g ai/ha, scale 0 to 100 (0 no effect, 100 complete control), preemergence
structure (smiles),measurement,setting,value
CCn1nc(C(C)(C)C)cc1C(=O)Nc1cccc2c1CCN(C1CC1)C2=O [Compound 64],"Sedge, Umbrella plant response rating",[1]; [15],0
same,"Sedge, Umbrella plant response rating",[1]; [16],25
same,"Sedge, Umbrella plant response rating",[1]; [17],35
same,"Plant response rating, Sedge, Umbrella",[1]; [18],75
same,"Plant response rating (0 = no effect, 100 = complete control), Nutsedge, Yellow","[2]; 62 g ai/ha, preemergence",0
same,"Plant response rating, Nutsedge, Yellow",[2]; [19],0
same,"Nutsedge, Yellow plant response rating",[2]; [20],0
same,Barnyardgrass plant response rating,[3]; [15],0
same,Barnyardgrass plant response rating,[3]; [16],0
same,Barnyardgrass plant response rating,[3]; [17],0
same,"Plant response rating, Barnyardgrass",[3]; [18],35
same,"Plant response rating (0 = no effect, 100 = complete control), Lambsquarters","[4]; 62 g ai/ha, preemergence",0
same,"Plant response rating, Lambsquarters",[4]; [19],0
same,Lambsquarters plant response rating,[4]; [20],90
same,"Plant response rating, Foxtail, Giant","[5]; 500 g ai/ha, 0 to 100 scale, 0 no effect, 100 complete control",30
same,"Plant response rating, Foxtail, Giant",[5]; [21],55
same,"Foxtail, Giant plant response rating","[5]; 500 g ai/ha, visual rating, 0 to 100 scale (0 no effect, 100 complete control)",40
same,"Foxtail, Giant plant response rating",[5]; [21],90
same,"Plant response rating (0 = no effect, 100 = complete control), Corn","[6]; 62 g ai/ha, preemergence",0
same,"Plant response rating, Corn",[6]; [22],0
same,"Plant response rating, Corn",[6]; [23],0
same,Corn plant response rating,[6]; [20],30
same,"Plant response rating (0 = no effect, 100 = complete control), Soybean","[7]; 62 g ai/ha, preemergence",0
same,"Plant response rating, Soybean",[7]; [19],0
same,Soybean plant response rating,[7]; [20],60
same,"Plant response rating (0 = no effect, 100 = complete control), Pigweed","[8]; 62 g ai/ha, preemergence",30
same,"Plant response rating, Pigweed",[8]; [19],70
same,Pigweed plant response rating,[8]; [20],100
same,"Plant response rating (0 = no effect, 100 = complete control), Morningglory","[9]; 62 g ai/ha, preemergence",0
same,"Plant response rating, Morningglory",[9]; [19],0
same,Morningglory plant response rating,[9]; [20],0
same,"Plant response rating (0 = no effect, 100 = complete control), Kochia","[10]; 62 g ai/ha, preemergence",0
same,"Plant response rating, Kochia",[10]; [19],20
same,Kochia plant response rating,[10]; [20],60
same,"Plant response rating (0 = no effect, 100 = complete control), Cupgrass, Woolly","[11]; 62 g ai/ha, preemergence",0
same,"Plant response rating, Cupgrass, Woolly",[11]; [22],0
same,"Plant response rating, Cupgrass, Woolly",[11]; [23],0
same,"Cupgrass, Woolly plant response rating",[11]; [20],10
same,"Plant response rating, Velvetleaf","[12]; Postemergence, 2000 g ai/ha, 0 to 100 scale, 0 no effect, 100 complete control",30
same,Velvetleaf plant response rating,[12]; 500 g ai/ha,10
same,Velvetleaf plant response rating,[12]; 2000 g ai/ha,35
same,"Plant response rating (0 = no effect, 100 = complete control), Surinam Grass","[13]; 62 g ai/ha, preemergence",0
same,"Plant response rating, Surinam Grass",[13]; [19],5
same,Surinam Grass plant response rating,[13]; [20],50
same,"Plant response rating (0 = no effect, 100 = complete control), Goosegrass","[14]; 62 g ai/ha, preemergence",0
same,"Plant response rating, Goosegrass",[14]; [19],10
same,Goosegrass plant response rating,[14]; [20],70

# From US20060069132A1, “Azolecarboxamide herbicides” (priority 2004, published 2006)
